Test [1] has as its system lung cancer (A-549) cell line. As to the kind of experiment: MTT antiproliferative assay, A549. In kind it is cell-based, human. The following applies: 48 h; for IC50: Homo sapiens. On the procedure:
(§1) To evaluate the antiproliferative activity of the synthesized tetrahydroquinoline derivatives, three distinct human cancer cell lines were selected: breast cancer (MCF-7), lung cancer (A-549), and triple-negative breast cancer (MDA-MB-231). Furthermore, the synthesized compounds were tested on the VERO cell line to assess their potential toxicity. The VERO cell line, commonly derived from the kidney of an adult African green monkey, is widely used for toxicity studies. To evaluate the toxicity of the synthesized compounds, this cell line was utilized in the present study. The VERO cells were cultured using […] medium. The F-12 Ham’s medium was used to cultivate the lung cancer (A-549) cell lines. DMEM was used to cultivate the cell lines for breast cancer (MCF-7) and triple-negative breast cancer (MDA-MB-231). Because it feeds the cell line, 5% fatal bovine serum (FBS) was used to make the whole medium. To further protect the cell line from contamination, 0.5% pen–strep (penicillin + streptomycin) was added to all the mediums. All of these cell lines were cultivated in sterile, vented T-75 and/or T-25 flasks that were kept at 37 °C and supplied with 5% CO2. All of the compounds’ stock solutions were prepared in DMSO, and dilutions were made in the appropriate media so that the 96-well plates’ final DMSO content was not greater than 0.1%. First, each drug was tested in triplicate against every cell line at a 25 µM dose. […] On the first day, 1 × 10^4 cells were planted, and 24 h later, the chemicals were added. The MTT dye was added after the compounds and cells had been cultured for 48 h. After four hours, the MTT dye was taken out of the wells. Each well received 100 µL of DMSO to dissolve the formazan crystals that had formed as a result of the living cells, and absorbance at 570 nm was measured.
Background: Tetrazolium assays rely on reduction of a dye to a coloured formazan, in cell work by metabolically active cells.

For test [2], the system named is breast cancer (MCF-7) cell line. As to the kind of experiment: MTT antiproliferative assay, MCF-7. The following applies: Homo sapiens, MCF7, 48 h. Format: cell-based. The procedure: as §1
For test [3], the system named is triple-negative breast cancer (MDA-MB-231) cell line. As to the kind of experiment: MTT antiproliferative assay, MDA-MB-231. Format: cell-based, human. The conditions noted are these: 48 h; for IC50: Homo sapiens. On the procedure:
as §1

The next test concerns VERO cell line. Briefly: MTT toxicity assay, VERO. Format: cell-based, African green monkey. The conditions noted are these: Chlorocebus sabaeus, 48 h, VERO normal cells. On the procedure: as §1
A further test deals with A549 lung cancer cells. Briefly: Annexin V-FITC/PI apoptosis assay by flow cytometry. In kind it is cell-based, human. The following applies: 48 h. The procedure: A549 lung cancer cells were seeded in six-well plates and cultured in F-12 Ham’s medium supplemented with 5% FBS, 0.5% penicillin–streptomycin, and maintained in a 5% CO2 atmosphere at 37 °C for 24 h. […] Each condition was maintained in duplicate, with DMSO serving as the vehicle control, while 5-fluorouracil and Everolimus were used as positive controls. The treated cells, along with the DMSO control group, were incubated for 48 h. After incubation, the media were removed, and 1 mL of trypsin was added to each well for approximately one minute, followed by neutralization with 4 mL of fresh medium. Subsequent steps were carried out following the protocol of the Annexin V-FITC apoptosis detection kit (Ref No: BMS500FI, Lot No: 264043; Invitrogen, Waltham, MA, USA). The contents of each well were collected and transferred to centrifuge tubes, followed by centrifugation at 1000 RPM for 8 min. After removing the supernatant, the cell pellets were washed with PBS and subjected to another centrifugation step. The pellets were then resuspended in 1 mL of 1× binding buffer from the Annexin V-FITC apoptosis detection kit and incubated in the dark for 15–20 min. Subsequently, 500 µL of this cell suspension was transferred to individual plastic flow cytometry tubes. Each tube was supplemented with 10 µL of propidium iodide (PI) and 5 µL of Annexin V-FITC conjugate. The tubes were then incubated in the dark for 10 min before analyzing cell apoptosis using flow cytometry.

Where only a bound is given, the exact number is not on record here.

One may read the IC50 as the point on the concentration scale where inhibition reaches its midpoint. Low values mean greater potency, high ones weaker potency. Regarding `O=c1[nH]cc(F)c(=O)[nH]1` [Compound 5-FU, 5-fluorouracil, reference compound], the IC50 is 0.28 ± 0.008 µM in test [1], 0.72 ± 0.03 µM in test [2], 3.39 ± 0.37 µM in test [3] and more than 25 µM in the test on VERO cell line.
For `O=C(Nc1ccc2c(c1)N(C(=O)C1CCOCC1)CCC2)c1ccc(OC(F)(F)F)cc1` [Compound 10a, N-(1-(Tetrahydro-2H-pyran-4-carbonyl)-1,2,3,4-tetrahydroquinolin-7-yl)-4-(trifluoromethoxy)benzamide], in that order: 1.06 ± 0.02 µM, 4.34 ± 0.12 µM, 8.16 ± 0.33 µM and more than 25 µM.
Turning to `O=C(Nc1ccc2c(c1)N(C(=O)C1CCCCC1)CCC2)c1ccc(OC(F)(F)F)cc1` [Compound 10b, N-(1-(Cyclohexanecarbonyl)-1,2,3,4-tetrahydroquinolin-7-yl)-4-(trifluoromethoxy)benzamide], the concentration for half-maximal inhibition (IC50) in test [1] is 4.72 ± 0.11 µM; in test [2], more than 25 µM; in test [3] it was 6.37 ± 0.19 µM; in the test with VERO cell line it was 9.82 ± 0.08 µM.
Regarding `O=C(Nc1ccc2c(c1)N(C(=O)N1CCOCC1)CCC2)c1cc(F)cc(C(F)(F)F)c1` [Compound 10d, 3-Fluoro-N-(1-(morpholine-4-carbonyl)-1,2,3,4-tetrahydroquinolin-7-yl)-5-(trifluoromethyl)benzamide], the IC50 in test [1] is 0.062 ± 0.01 µM; in test [2], 0.58 ± 0.11 µM; in test [3] it was 1.003 ± 0.008 µM; in the test on VERO cell line, more than 25 µM. The “apoptosis (early and last phase combined)” value with A549 lung cancer cells (A549, 3 µM) is 29.35%; in the test with A549 lung cancer cells (A549, 6 µM), 77.66%.
As for `O=C(Nc1ccc2c(c1)N(C(=O)N1CCOCC1)CCC2)c1cc(C(F)(F)F)cc(C(F)(F)F)c1` [Compound 10e, N-(1-(Morpholine-4-carbonyl)-1,2,3,4-tetrahydroquinolin-7-yl)-3,5-bis(trifluoromethyl)benzamide], the IC50 is 0.033 ± 0.003 µM in test [1], 2.89 ± 0.013 µM in test [2], 0.63 ± 0.02 µM in test [3] and 8.86 ± 0.03 µM in the test with VERO cell line. The Necrosis came out at 0.05% in the test with A549 lung cancer cells (A549, 3 µM) and 0.01% with A549 lung cancer cells (A549, 6 µM). In the test on A549 lung cancer cells (A549, 3 µM), the “apoptosis (early and last phase combined)” value worked out at 75.7%. Further, the “Early Apoptosis” value in the test on A549 lung cancer cells (A549, 6 µM) was found to be 70.00%. The “Late Apoptosis” value in the test with A549 lung cancer cells (A549, 6 µM) worked out at 20.37%.
Regarding `O=C(Nc1ccc2c(c1)N(C(=O)N1CCCCC1)CCC2)c1cc(F)cc(F)c1` [Compound 10f, 3,5-Difluoro-N-(1-(piperidine-1-carbonyl)-1,2,3,4-tetrahydroquinolin-7-yl)benzamide], the “A549 (IC50 µM)” value in test [1] is on record as “no activity”. For the same compound, the half-inhibitory concentration (IC50) in test [1] is more than 25 µM; in test [2], 4.47 ± 0.013 µM; in test [3] it was more than 25 µM; in the test on VERO cell line, more than 25 µM. Moreover, in test [3], the “MDA-MB-231 (IC50 µM)” value is “no activity”.
With `O=C(Nc1ccc2c(c1)N(C(=O)N1CCCCC1)CCC2)c1cc(F)cc(C(F)(F)F)c1` [Compound 10g, 3-Fluoro-N-(1-(piperidine-1-carbonyl)-1,2,3,4-tetrahydroquinolin-7-yl)-5-(trifluoromethyl)benzamide], the IC50 in test [1] is 0.68 ± 0.13 µM; in test [2], 2.5 ± 0.16 µM; in test [3] it was more than 25 µM; in the test on VERO cell line, more than 25 µM.
Take `O=C(Nc1ccc2c(c1)N(C(=O)N1CCCCC1)CCC2)c1cc(C(F)(F)F)cc(C(F)(F)F)c1` [Compound 10h, N-(1-(Piperidine-1-carbonyl)-1,2,3,4-tetrahydroquinolin-7-yl)-3,5 bis(trifluoromethyl)benzamide]: the IC50 in test [1] is 3.36 ± 0.71 µM; in test [2], 0.087 ± 0.007 µM; in test [3], 1.29 ± 0.032 µM; in the test on VERO cell line, more than 25 µM.
In the case of `CO[C@H]1C[C@@H]2CC[C@@H](C)[C@@](O)(O2)C(=O)C(=O)N2CCCC[C@H]2C(=O)O[C@H]([C@H](C)C[C@@H]2CC[C@@H](OCCO)[C@H](OC)C2)CC(=O)[C@H](C)/C=C(\C)[C@@H](O)[C@@H](OC)C(=O)[C@H](C)C[C@H](C)/C=C/C=C/C=C/1C` [Everolimus, reference compound], the IC50 in test [1] was 0.09 ± 0.01 µM; in test [2], 5.86 ± 0.07 µM; in test [3], 7.76 ± 0.37 µM; with VERO cell line it was more than 25 µM.

The record behind these values is PMC11898650, “Morpholine-Substituted Tetrahydroquinoline Derivatives as Potential mTOR Inhibitors: Synthesis, Computational Insights, and Cellular Analysis” (Cancers, 2025).
